In brackets after ≈: the same amount, converted by molar mass. Where a name gives a salt, the structure may show the parent alone.
Legend:
Format in all cases: physicochemical
[1] = XRPD of the solid after the solubility test (crystal transformation)
Method: (§1) A certain amount of crystalline form A of free base of the compound of formula (I), crystalline form I of the tartrate salt, and crystalline form III of the tartrate salt were weighed and placed in a 5 mL sample bottle. Deionized water, pH 2.0 glycine-hydrochloric acid buffer solution, pH 4.5 Na2HPO4-citric acid buffer solution, and pH 6.8 Na2HPO4-citric acid buffer solution were added respectively (each 2 mL). The mixture was placed on a shaker at 25° C., shaken for 24 hours, and then filtered. The filtrate was tested for solubility by HPLC; and the solid was detected by XRPD to determine whether the crystalline form was transformed.

[2] = Accelerated stability test: influence factor test and accelerated test, solid XRPD; conditions: for Stability of crystalline form, summary in words: high temperature, high humidity, strong light and accelerated test conditions
Method: According to the stability test requirements for the raw drug in the fourth part of the 2015 edition of the “Chinese Pharmacopoeia”, “Guiding Principles for the Stability Test of Raw Drugs and Preparations”, the influence factor test and the accelerated test were investigated on crystalline form.
High temperature test (T): The powder was placed in a suitable sealed glass bottle, and placed at 60° C. for 10 days. Samples were taken on the 5th and 10th day to detect the solid XRPD.
High humidity test (H): The powder was placed in an open constant temperature and humidity box, and placed at 25° C., 90%±5% RH for 10 days. Samples were taken on the 5th and 10th day and the solid XRPD was detected so as to investigate the moisture absorption and deliquescence performances.
Strong light irradiation test (L): The powder was placed in an open box equipped with a fluorescent lamp, and placed under the condition of an illumination of 4500±5001x for 10 days. Samples were taken on the 5th and 10th day to detect the solid XRPD.
Accelerated test (A): The powder was placed in an open constant temperature and humidity box, and placed at 40° C., 75%±5% RH for 10 days. Samples were taken on the 5th and 10th day to detect the solid XRPD.

[3] = Stability under pressure condition (powder tablet press, XRPD); conditions: mechanical pressures of 2, 4, 6, 8, and 10 N, 5 minutes
Method: An appropriate amount of powders of crystalline form A of the free base, crystalline form I of the tartrate salt, and crystalline form III of the tartrate salt were weighed and evenly spread on the bottom of the mold of a powder tablet press. To simulate the pressure conditions in a formulation process, mechanical pressures of 2, 4, 6, 8, and 10 N were applied respectively. The pressure was kept stable for 5 minutes, and then samples were taken for XRPD to investigate the stability of the crystalline form under pressure conditions. For details of patterns, see FIGS. 24-26.

[4] = Solubility test (shaker 25° C., 24 hours, filtrate by HPLC); conditions: for solubility at 24 h: 25 °C, thermodynamic from solid
Method: as §1
The chromatographic conditions were as follows: • Chromatographic column: Unitary C18 (5 μm, 100 A, 4.6×250 mm) • Mobile phase: Phase A was ammonium acetate with pH of 6.2, and phase B was acetonitrile, A: B=10:90. • Detection wavelength: 230 nm, Column temperature: 35° C. • Injection volume: 20 μL

[5] = Stability under grinding condition (ball mill, XRPD); conditions: automatic ball mill, grinding 5, 10, 15, and 30 min
Method: An appropriate amount of powders of crystalline form A of the free base, crystalline form I of the tartrate salt and crystalline form III of the tartrate salt were weighed and evenly spread in an agate mortar. Agate beads were added. To simulate the grinding conditions in a formulation process, the vibration frequency of the automatic ball mill was set at 25S-1, and the grinding was carried out for 5, 10, 15, and 30 min, respectively. Then samples were taken for XRPD to investigate the stability of the crystalline form under grinding conditions. For details of patterns, see FIGS. 27-29.

[6] = Suspension competitive crystal transformation test of crystalline forms I and III of the tartrate salt (XRPD); conditions: for Crystalline form after suspension competition: 24 h
Method: Crystalline form I and crystalline form III (each 20 mg) were weighed and added into a 2 mL or 10 mL glass bottle, and 0.5 mL or 1 mL of organic solvent was added, respectively, according to the solubility. Two batches were prepared with the same solvent, and placed respectively at room temperature and 50° C. for suspension competition for 24 h. The suspension was centrifuged (10000 rpm, 3 min). The obtained solid powder was then vacuum-dried and tested for XRPD (See FIGS. 30 and 31 for details).

[7] = Water adsorption and desorption test (DVS); conditions: for Moisture absorption: 25° C.
Method: • 4. Gravimetric Dynamic Vapor Sorption Isotherm Plot (DVS)
Dynamic water adsorption instrument (DVS) was used to investigate the adsorption and desorption test of crystalline forms I and III of the tartrate salt at 25° C. in the range of 0-95% relative humidity, so as to determine hygroscopicity of various crystalline forms (For details, see FIGS. 4d and 5d).

[8] = solid after solubility test in deionized water
[9] = Accelerated (40° C./75%), 5 days
[10] = Accelerated (40° C./75%), 10 days
[11] = High humidity (92.5% RH), 25° C., 5 days
[12] = High humidity (92.5% RH), 25° C., 10 days
[13] = High temperature (60° C.), 5 days
[14] = High temperature (60° C.), 10 days
[15] = Strong light (4500 lx), 10 days
[16] = Deionized water, 25° C., 24 hours
[17] = pH 2.0 glycine-hydrochloric acid buffer solution, 25° C., 24 hours
[18] = pH 4.5 Na2HPO4-citric acid buffer solution, 25° C., 24 hours
[19] = pH 6.8 Na2HPO4-citric acid buffer solution, 25° C., 24 hours
[20] = pH 6.8 buffered saline solution

Structure (SMILES)	Crystal transformation as detected by XRPD [1, 8]	Stability of crystalline form (XRPD) [2, 9]	Stability of crystalline form (XRPD) [2, 10]	Stability of crystalline form (XRPD) [2, 11]	Stability of crystalline form (XRPD) [2, 12]	Stability of crystalline form (XRPD) [2, 13]	Stability of crystalline form (XRPD) [2, 14]	Stability of crystalline form (XRPD) ([2]; Strong light (4500 lx), 5 days)	Stability of crystalline form (XRPD) [2, 15]	Stability of the crystalline form under pressure conditions (XRPD) [3]	Solubility [4, 16]	Solubility [4, 17]	Solubility [4, 18]	Solubility [4, 19]	Solubility compared with the amorphous form of the free base [4, 20]	Stability of the crystalline form under grinding conditions (XRPD) [5]	Moisture absorption ([7]; from 90% to 95% RH)	Moisture absorption ([7]; humidity range of 40-80% RH)	Stability of crystalline form, summary in words [2]	also measured
COc1cc(C(=O)NC2CCN(C)CC2)c(F)cc1Nc1ncc(C(F)(F)F)c(Oc2cccc3c2C(=O)N(C)C3)n1 [Amorphous form of the free base]											1.07 mg/mL (≈ 1.82 mM)			0.05 mg/mL (≈ 0.085 mM)						solubility at 24 h ([4]; Na2HPO4-citric acid buffer, pH 4.5, aqueous buffer, pH 4.5 Na2HPO4-citric acid buffer solution, 24 hours): 8500 µg/mL (≈ 14.4 mM); solubility at 24 h ([4]; glycine-hydrochloric acid buffer, pH 2, aqueous buffer, pH 2.0 glycine-hydrochloric acid buffer solution, 24 hours): > 10000 µg/mL
COc1cc(C(=O)NC2CCN(C)CC2)c(F)cc1Nc1ncc(C(F)(F)F)c(Oc2cccc3c2C(=O)N(C)C3)n1																				Crystalline form after suspension competition ([6]; Cyclohexane, 50° C.): Mixture; Crystalline form after suspension competition ([6]; Cyclohexane, room temperature): Mixture; Crystalline form after suspension competition ([6]; Methyl tert-butyl ether, 50° C.): Mixture; Crystalline form after suspension competition ([6]; Methyl tert-butyl ether, room temperature): Mixture
COc1cc(C(=O)NC2CCN(C)CC2)c(F)cc1Nc1ncc(C(F)(F)F)c(Oc2cccc3c2C(=O)N(C)C3)n1 [Crystalline form I of the tartrate salt]	no crystal transformation	Consistent	Consistent	Consistent	Consistent	Consistent	Consistent	Consistent	Consistent	stable	2.59 mg/mL	>10 mg/mL	5.2 mg/mL	>10 mg/mL	significantly improved	only reduced in the degree of crystallinity	0.08%	0.33%	stable under above test conditions without crystal transformation	Relative stability of the crystalline form in suspension competition ([6]; conventional solvents except methyl tert-butyl ether and cyclohexane, room temperature and 50° C.): stable crystalline form; Solubility compared with the amorphous form of the free base ([4]; deionized water): significantly improved; Weight gain (DVS) ([7]; increase in relative humidity from about 0 to about 95%): about 1%

Second part, led by results:

Crystal transformation as detected by XRPD [1, 8]	Stability of crystalline form (XRPD) [2, 9]	Stability of crystalline form (XRPD) [2, 10]	Stability of crystalline form (XRPD) [2, 11]	Stability of crystalline form (XRPD) [2, 12]	Stability of crystalline form (XRPD) [2, 13]	Stability of crystalline form (XRPD) [2, 14]	Stability of crystalline form (XRPD) ([2]; Strong light (4500 lx), 5 days)	Stability of crystalline form (XRPD) [2, 15]	Stability of the crystalline form under pressure conditions (XRPD) [3]	Solubility [4, 16]	Solubility [4, 17]	Solubility [4, 18]	Solubility [4, 19]	Solubility compared with the amorphous form of the free base [4, 20]	Stability of the crystalline form under grinding conditions (XRPD) [5]	Moisture absorption ([7]; from 90% to 95% RH)	Moisture absorption ([7]; humidity range of 40-80% RH)	Structure (SMILES)	Stability of crystalline form, summary in words [2]	also measured
no crystal transformation	Consistent	Consistent	Consistent	Consistent	Consistent	Consistent	Consistent	Consistent	stable	0.033 mg/mL (≈ 0.0561 mM)	>10 mg/mL	>10 mg/mL	1.06 mg/mL (≈ 1.8 mM)	significantly improved	become amorphous			COc1cc(C(=O)NC2CCN(C)CC2)c(F)cc1Nc1ncc(C(F)(F)F)c(Oc2cccc3c2C(=O)N(C)C3)n1 [Crystalline form A of the free base]	stable under above test conditions without crystal transformation	Crystal transformation as detected by XRPD ([1]; solid after solubility test in pH 6.8 buffered saline solution): no crystal transformation
	Consistent	Consistent	Consistent	Consistent,	Consistent	Consistent	Consistent	Consistent	stable	>10 mg/mL	>10 mg/mL	>10 mg/mL	>10 mg/mL		become amorphous	18.1%	0.37%	COc1cc(C(=O)NC2CCN(C)CC2)c(F)cc1Nc1ncc(C(F)(F)F)c(Oc2cccc3c2C(=O)N(C)C3)n1 [Crystalline form III of the tartrate salt]	stable under above test conditions without crystal transformation	Crystallinity ([2]; high-humidity environment): reduced; Solubility ([4]; all the solvent systems): very good solubility

Reference: patent publication US20240051942A1, “SOLID FORM OF COMPOUND” (INXMED (NANJING) CO., LTD., priority 2020, published 2024)
